Reference: US5593970A, “Heterocyclic anthracycline analogs” (priority 1994, dated 1997)
Several values for one entry are separate records, joined by “and”; a condition that tells them apart may be missing. Equal entries are not always repeated. Structures can show the parent of a compound that is named as a salt. Where two headings read alike, the source gives them in different places.

Tests used:
Experiment in all cases: Microculture tetrazolium assay
Type in all cases: cell-based
HT29 = system: HT29
SKVLB = conditions: for VLB/OV3: IC50 ratio SKVLB/SKOV3; for IC50: SKVLB
SKOV3 = system: SKOV3
LOX = conditions: read-out: IC50
[1] = HT29, hydrochloride, read-out: IC50
[2] = Homo sapiens, HT-29, HT29, read-out: IC50
[3] = Homo sapiens, SK-OV-3, SKOV3, read-out: IC50
[4] = SKOV3, hydrochloride, read-out: IC50

| Structure (SMILES) | IC50 (HT29; [2]) [nM] | IC50 (SKVLB; read-out: IC50) | VLB/OV3 (SKVLB) | IC50 (SKOV3; [3]) [nM] | IC50 (LOX) [nM] | also measured |
| --- | --- | --- | --- | --- | --- | --- |
| CC(=O)C1Cc2c(O)c3c(c(O)c2C(O[C@H]2C[C@H](N)[C@H](O)[C@H](C)O2)O1)C(=O)c1ccccc1C3=O (mixture of isomers) [BCH-1130, (1'S,1S,3R) and (1'S,1R,3S)-Methyl-[5,12-dihydroxy-1-(2',3',6'-trideoxy-3'-amino-4'-hydroxy-L-lyxohexopyranose)-6,11-dioxo-3,4,6,11-tetrahydroanthraceno-(2,3-C)pyran-3-yl]ketone hydrochloride] | 170 | 573 nM | – | – | – | IC50 (HT29; [1]): 127 nM; VLB/OV3 (SKVLB; hydrochloride): 21.87 and 19.04; IC50 (SKVLB; hydrochloride, read-out: IC50): 1030 nM |
| CC(=O)C1Cc2c(O)c3c(c(O)c2C(O[C@H]2C[C@H](N4CCOCC4)[C@H](O)[C@H](C)O2)O1)C(=O)c1ccccc1C3=O (mixture of isomers) [BCH-1191, (1'S,1R,3S) and (1'S,1S,3R)-Methyl(1-(2',3',6'-trideoxy-3'-morpholino-L-lyxohexopyranose)-6,11-dioxo-5,12-dihydroxy-3,4,6,11-tetrahydroanthraceno[2,3-c]pyran-3-yl)ketone] | – | – | 3.57 | – | – | IC50 (SKVLB): 1050 nM |
| C[C@@H]1O[C@@H](O[C@@H]2O[C@@H](C(C)(F)F)CC3=C2C(=O)c2cc4ccccc4c(O)c2C3=O)C[C@H](NC(=O)C(F)(F)F)[C@@H]1O (mixture of isomers) [BCH-1677, (1'S,1R,3S) and (1'S,1S,3R)-5,12-dioxo-3-(1,1-difluoroethyl)-6-hydroxy-1-(2',3',6'-trideoxy-3'-trifluoroacetamido-L-lyxohexopyranose)-3,4,5,12-tetrahydroanthraceno-[2,3-c]-pyran] | 5440 | 7790 nM | 1.65 | 4710 | 2480 | – |
| CC(=O)C1CC2=C(C(=O)c3cc4ccccc4c(O)c3C2=O)C(O[C@H]2CC[C@H](NC(=O)C(F)(F)F)[C@H](C)O2)O1 (mixture of isomers) [BCH-1680, (1'S,1S,3R) and (1'S, 1R, 3S)-methyl-{6-hydroxy-1(2',3',4',6'-tetradeoxy-4'-trifluoroacetamido-L-lyxohexopyranose)-5,12-dioxo-3,4,5,12-tetrahydroanthraceno-[2,3-c]pyran-3-yl}ketone] | 2240 | 3830 nM | 1.36 | 2810 | 2260 | – |
| C[C@@H]1O[C@@H](O[C@@H]2O[C@@H](C(=O)C(C)(C)C)CC3=C2C(=O)c2cc4ccccc4c(O)c2C3=O)C[C@H](NC(=O)C(F)(F)F)[C@@H]1O (mixture of isomers) [BCH-2197, (1'S, 1S,3S) and (1'S,1R, 3R)-tert-butyl-(6-hydroxy-1-(2',3',6'-trideoxy-3'-trifluoroacetamido-4-hydroxy-L-lyxohexopyranose)-5,12-dioxo-3,4,5,12-tetrahydroanthraceno-[2,3-c]-pyran-3-yl)-ketone] | 520 | 3020 nM | 1.09 | 2770 | – | – |
| C[C@@H]1O[C@@H](O[C@H]2O[C@H](C(=O)C(C)(C)C)CC3=C2C(=O)c2cc4ccccc4c(O)c2C3=O)C[C@H](NC(=O)C(F)(F)F)[C@@H]1O (mixture of isomers) [BCH-2198, (1'S, 1S,3S) and (1'S,1R, 3R)-tert-butyl-(6-hydroxy-1-(2',3',6'-trideoxy-3'-trifluoroacetamido-4-hydroxy-L-lyxohexopyranose)-5,12-dioxo-3,4,5,12-tetrahydroanthraceno-[2,3-c]-pyran-3-yl)-ketone] | 2410 | 4150 nM | 0.94 | 4400 | – | – |
| CCC1Cc2c(O)c3c(c(O)c2C(C[C@H]2C[C@H](N)[C@H](O)[C@H](C)O2)O1)C(=O)c1ccccc1C3=O (mixture of isomers) [BCH-2817, (1'S,2'R, 3'S,5'R, 1S,3R) and (1'S,2'R, 3'S,5'R, 1R, 3S)-1-(3-amino-2-hydroxy-1-methyltetrahydropyran-5-yl)methyl-3-ethyl-5,12-dihydroxy-6,11-dioxo-3,4,6,11-tetrahydroanthraceno-[2,3-c]pyran hydrochloride] | 3530 | 11000 nM | 6.59 | 1670 | – | – |
| CC(=O)[C@H]1CC2=C(C(=O)c3cc4ccccc4c(O)c3C2=O)[C@H](O[C@H]2C[C@H](N)[C@H](O)[C@H](C)O2)O1 [BCH-1127] | – | – | 1.87 and 3.24 | – | – | – |
| CC[C@H]1CC2=C(C(=O)c3cc4ccccc4c(O)c3C2=O)[C@H](O[C@H]2C[C@H](NC(=O)C(F)(F)F)[C@H](O)[C@H](C)O2)O1 [BCH-1187, (1'S,1S,3S)-5,12-dioxo-3-ethyl-6-hydroxy-1-(2',3',6'-trideoxy-3'-trifluoroacetamido-4'-hydroxy-L-lyxohexopyranose)-3,4,5,12-tetrahydroanthraceno[2,3-c]pyran] | 1420 | 3860 nM and 3880 nM | 3.22 and 2.10 | 1200 | – | IC50 (HT29; HT29, read-out: IC50): 1980 nM; IC50 (SKOV3; SKOV3, read-out: IC50): 1850 nM |
| COC(=O)[C@H](C)O[C@@H]1OC(C(=O)OC)(C(=O)OC)CC2=C1C(=O)c1cc3ccccc3c(O)c1C2=O [BCH-1668, (1R,1'S)-3,3-Bis-carbomethoxy-1-(1'-carbomethoxyethoxy)-5,12-dioxo-6-hydroxy-3,4,5,12-tetrahydroanthraceno[2,3-C]pyran] | 5700 | 6200 nM | – | 6200 | 5200 | – |
| CC(=O)C1CC2=C(C(=O)c3cc4ccccc4c(O)c3C2=O)C(OC[C@H](O)CO)O1 (stereo partly drawn) [BCH-1669] | 591 | 1050 nM | 0.87 | 1210 | 631 | – |
| CC(=O)C1CC2=C(C(=O)c3cc4ccccc4c(O)c3C2=O)C(OC[C@@H](O)CO)S1 (stereo partly drawn) [BCH-1670] | 342 | 680 nM | 1.24 | 547 | 673 | – |
| CC(=O)O[C@@H]1[C@H](C)O[C@@H](O[C@H]2S[C@H](C(C)=O)CC3=C2C(=O)c2cc4ccccc4c(O)c2C3=O)C[C@@H]1OC(C)=O [BCH-1671] | – | – | 0.82 and 1.00 | – | – | – |
| CC(=O)[C@H]1Cc2c(O)c3c(c(O)c2[C@H](O[C@@H]2O[C@@H](C)[C@@H](O)[C@@H](O)C2I)O1)C(=O)c1ccccc1C3=O (stereo partly drawn) [BCH-1675] | 5280 | – | – | – | 1180 | – |
| C[C@@H]1O[C@@H](O[C@@H]2O[C@@H](c3ccccc3)CC3=C2C(=O)c2cc4ccccc4c(O)c2C3=O)C[C@H](N)[C@@H]1O [BCH-2013] | – | 4640 nM | – | – | 554 | – |
| C=CC[C@H]1Cc2c(O)c3c(c(O)c2[C@H](O[C@H]2C[C@H](N)[C@H](O)[C@H](C)O2)O1)C(=O)c1ccccc1C3=O [BCH-2106, (1'S,1S,3S)-3-(5,12-dihydroxy-1-(2',3',6'-trideoxy-3'-amino-4'-hydroxy-L-lyxohexopyranose)-6,11-dioxo-3,4,5,12-tetrahydroanthraceno-[2,3-c]pyran-3-yl)propene hydrochloride] | – | – | – | 148 | – | – |
| C=C(C)[C@H]1Cc2c(O)c3c(c(O)c2[C@H](O[C@H]2C[C@H](N)[C@H](O)[C@H](C)O2)O1)C(=O)c1ccccc1C3=O [BCH-2188, (1'S,1S,3R)-5,12-dihydroxy-6,11-dioxo-3-isopropenyl-1-(2',3',6'-trideoxy-3'-amino-L-lyxohexopyranose)-3,4,5,12-tetrahydroanthraceno-[2,3-c]-pyran hydrochloride] | 211 | 198 nM | – | 374 | – | IC50 (HT29; [1]): 310 nM; IC50 (SKOV3; [4]): 640 nM; VLB/OV3 (SKVLB; hydrochloride): 0.53 and 0.46; IC50 (SKVLB; hydrochloride, read-out: IC50): 297 nM |
| C=C(C)[C@@H]1Cc2c(O)c3c(c(O)c2[C@@H](O[C@H]2C[C@H](N)[C@H](O)[C@H](C)O2)O1)C(=O)c1ccccc1C3=O [BCH-2189, (1'S,1R,3S)-5,12-dihydroxy-6,11-dioxo-3-isopropenyl-1-(2',3',6'-trideoxy-3'-amino-L-lyxohexopyranose)-3,4,5,12-tetrahydroanthraceno-[2,3-c]-pyran hydrochloride] | 147 | – | – | 268 | – | IC50 (HT29; [1]): 144 nM; IC50 (SKOV3; [4]): 342 nM; VLB/OV3 (SKVLB; hydrochloride): 0.39 and 0.73 |
| CC(C)[C@H]1Cc2c(O)c3c(c(O)c2[C@H](O[C@H]2C[C@H](N4CCOCC4)[C@H](O)[C@H](C)O2)O1)C(=O)c1ccccc1C3=O [BCH-2190, (1'S,1S,3R)-5,12-dihydroxy-6,11-dioxo-3-isopropyl-1-(2',3',6-trideoxy-3'-(4-morpholinyl)-L-lyxohexopyranose)-3,4,5,12-tetrahydroanthraceno-[2,3-c]-pyran] | 3710 | 3180 nM | 1.93 | 1650 | – | – |
| CC(C)[C@H]1Cc2c(O)c3c(c(O)c2[C@H](O[C@H]2C[C@H](N4CCOCC4)[C@H](O)[C@H](C)O2)O1)C(=O)c1ccccc1C3=O [BCH-2192, (1'S,1S,3R)-5,12-dihydroxy-6,11-dioxo-3-isopropyl-1-(2',3',6'-trideoxy-3'(4-morpholinyl)-L-lyxohexopyranose)-3,4,5,12-tetrahydroanthraceno-[2,3-c]-pyran hydrochloride] | – | – | – | – | – | IC50 (HT29; [1]): 4650 nM; IC50 (SKOV3; [4]): 1930 nM; VLB/OV3 (SKVLB; hydrochloride): 1.18; IC50 (SKVLB; hydrochloride, read-out: IC50): 2280 nM |
| CC(C)[C@H]1Cc2c(O)c3c(c(O)c2[C@H](O[C@H]2C[C@H](N4CCOCC4C#N)[C@H](O)[C@H](C)O2)O1)C(=O)c1ccccc1C3=O (stereo partly drawn) [BCH-2195, (1'S,1S,3R)-5,12-dihydroxy-6,11-dioxo-3-isopropyl-1-(2',3',6'-trideoxy-3'(3-cyano-4-morpholinyl)-L-lyxohexopyranose)-3,4,5,12-tetrahydroanthraceno-[2,3-c]-pyran] | – | – | 2.22 | – | – | IC50 (HT29; Homo sapiens, HT-29, HT29): 3400 nM; IC50 (SKOV3; Homo sapiens, SK-OV-3, SKOV3): 4550 nM; IC50 (SKVLB): 10100 nM |
| C[C@@H]1O[C@@H](O[C@@H]2O[C@@H](C(=O)OC(C)(C)C)CC3=C2C(=O)c2cc4ccccc4c(O)c2C3=O)C[C@H](NC(=O)C(F)(F)F)[C@@H]1O [BCH-2850] | 5100 | 5200 nM | 1.49 | 3500 | – | – |
